System: stem cells isolated from rat cortex, differentiated with CNTF (astrocyte cultures)
Experiment: Expression profile of CNTF-differentiated rat cortex stem cells treated with VIP
Format: cell-based
Conditions: 5 μM VIP, one day
Protocol: VIP signature genes. Similar experiments were also performed in which cells were treated with vasoactive intestinal polypeptide (VIP), another drug useful for treating neuropsychiatric disorders. In more detail, stem cells were isolated and propagated from rat cortex. At passage 1, they were treated with 10 ng/ml ciliary neurotrophic factor (CNTF, available from R&D Systems, MN) for four days. 10 ng/ml of basic fibroblast growht factor (bFGF, R&D Systems, MN) was present in the medium on the first day of the differentiation regiment. […] Cells were then treated with 5 μM VIP (Sigma) for one day and harvested for expression profiling.
Signature genes were identified that changed expression when contacted with VIP compared to untreated cells. Each of these genes is listed below in Table 4, along with the measured expression ratio (ρ) and the GenBank Accession number for an exemplary cDNA sequence. The exemplary cDNA sequence for each gene is also provided here in the accompanying sequence listing. Accordingly, an appropriate sequence identifier is also specified in Table 4 for each listed gene.

## vasoactive intestinal polypeptide [VIP]
Vs untreated, U22399 SEQ ID NO: 163
  expression ratio σ: Cdk-inhibitor p57Kip2: −1.8
AF112153 SEQ ID NO: 164
  expression ratio σ: Rat EGF like protein: 3.8
AF164040 SEQ ID NO: 168
  expression ratio σ: Rat Interferon inducdible protein 16: 1.8
BC003789 SEQ ID NO: 166
  expression ratio σ: similar to erythrocyte protein band 7.2: 2.2
U02094 SEQ ID NO: 169
  expression ratio σ: rat Dahl salt resistant strain clone etb: 1.8
U40682 SEQ ID NO: 167
  expression ratio σ: Rat tyrosine phosphatase like protein IA-2a: 2.0
X61381 SEQ ID NO: 165
  expression ratio σ: Rat interferon induced mRNA: 2.3
